Data from patent publication US5648381A, “Derivatives of indan-1,3-dione and indan-1,2,3-trione, methods of preparing them and therapeutic use thereof” (Innothera, priority 1992, dated 1997).

How the values were obtained:
[1] = Free radical trapping (DPPH) effect; conditions: in vitro, DPPH model
Excerpt: (§1) In the in vitro test, the compounds were solubilised in aqueous solution, either pure or containing DMSO or alcohol.
The overall "free radical trapping" effect was studied in vitro in a model using 1,1-diphenyl-2-picrylhydrazyl (DPPH) as stable free radical, the method being derived from that described by Lamaison et al., Plantes Medic. et phytotheraphie, XXII, 1988, 231-234.

saphena veins of rabbits = assay: Contraction of isolated saphena veins produced by depolarisation (KCl, hyperpotassic solution); conditions: KCl 40 mM, compound 10 nM to 30 μM, rabbit; for EC50: Oryctolagus cuniculus, read-out: ED50 for increase in contractions of the saphena veins produced by KCl
Description: as §1
The contractile effect was measured in vitro:
by the contractile force exerted by vascular rings, either quiescent or stimulated (electrically or by physiological agents) and maintained under isometric conditions, and
The formula (A) compounds and their salts, if any, increase the contraction of animal saphena veins produced by noradrenalin and depolarisation (hyperpotassic solution) without in most cases affecting the arterial contractile responses. For example, 2-hydroxy-2-(2-methoxybenzoyl hydrazino)-indan-1,3-dione and the compound in Example 22 (10 nM to 30 μM) produce a more than 50% increase (ED50 ±0.3 microM) in contractions of the saphena veins of rabbits produced by KCl (40 mM).

[2] = system: oedema and leucocyte migration in the pleural cavity; assay: Carrageenin-induced pleurisy in the rat; assay type: in vivo; conditions: intraperitoneally twice 20 mg/kg, six hours after carrageenin
Description: (§2) In the in vivo test, the products were administered intravenously in the form of a pure aqueous solution or intraperitoneally in the form of an aqueous solution optionally containing DMSO or orally in solution or in suspension in carboxymethyl cellulose or in a composite aqueous solution containing Tween® and DMSO in certain cases.
The compounds in Examples 1, 3 and 11 and 2-hydroxy-2-(3-methoxybenzoyl hydrazino)-indan-1,3-dione reduce vascular permeability by 10 to 50% when measured one to two hours after intraperitoneal administration of 5-20 mg/kg and 2 to 4 hours after oral administration of 5-20 mg/kg to the rat. The compound in Example 9 and 2-isonicotinoyl hydrazonoindan-1,3-dione, administered intraperitoneally twice in doses of 20 mg/kg, inhibit oedema and leucocyte migration in the pleural cavity, six hours after injection of carrageenin in the model of pleurisy in the rat.

[3] = Toxicity, single oral administration to the mouse; assay type: in vivo; conditions: 1 g/kg
Excerpt: The formula (A) compounds and their salts if any have very low toxicity.

[4] = system: basic venous tone of the rat; assay: Basic venous tone and arterial pressure in vivo (normal and after cardiac arrest); conditions: 1 to 3 picomols intravenously
Description: as §2
In vivo, the arterial and venous pressure was measured under normal conditions and after cardiac arrest. During cardiac arrest, the venous tone was calculated from the venous and arterial pressure measured at equilibrium and corrected in dependence on the relative differences in compliance between these two networks (Samar and Coleman, Am. J. Physiol., 1978, 234:H94-100; Yamamoto et al., Am. J. Physiol., 1980, 238:H823-828).

## COc1ccc2c(=O)c(=NNc3cccc(F)c3)c(=O)c2c1 [2-(3-fluorophenyl hydrazono)-5-methoxyindan-1,3-dione]
[1]
  maximum anti-radical effect: more than 95%

## COc1ccccc1C(=O)NNC1(O)C(=O)c2ccccc2C1=O [2-hydroxy-2-(2-methoxybenzoyl hydrazino)-indan-1,3-dione]
Saphena veins of rabbits
  increase in contractions of the saphena veins produced by KCl: more than 50%
  EC50: ~300 nM

## O=C(NN=c1c(=O)c2ccccc2c1=O)c1ccncc1 [2-isonicotinoyl hydrazonoindan-1,3-dione]
[2]
  inhibition of leucocyte migration in the pleural cavity: inhibit
  inhibition of oedema: inhibit

## O=c1c(=NNc2ccccc2)c(=O)c2ccccc12 [2-phenyl hydrazonoindan-1,3-dione]
[3]
  deaths: no deaths
[3]; in certain cases
  observed effects: coloured diarrhoea and coloured urine

## O=C(NNC1(O)C(=O)c2ccccc2C1=O)c1ccccc1 [Example 3, 2-benzoyl hydrazino-2-hydroxy-indan-1,3-dione]
[4]
  increase in the basic venous tone: more than 20%

## Cc1ccccc1C(=O)NNC1(O)C(=O)c2ccccc2C1=O [Example 6, 2-hydroxy-2-(2-methylbenzoylhydrazino)-indan-1,3-dione]
[4]
  effect on arterial pressure: without affecting the arterial pressure
  increase in the basic venous tone: more than 20%

## O=C(NNC1(O)C(=O)c2ccccc2C1=O)c1ccccc1O [Example 9, 2-hydroxy-2-(2-hydroxybenzoylhydrazino)-indan-1,3-dione]
[2]
  inhibition of leucocyte migration in the pleural cavity: inhibit
  inhibition of oedema: inhibit
[1]
  maximum anti-radical effect: more than 95%

## COc1ccc(C(=O)NNC2(O)C(=O)c3ccccc3C2=O)cc1OC [Example 11, 2-(3,4-dimethoxybenzoylhydrazino)-2-hydroxyindan-1,3-dione]
[4]
  effect on arterial pressure: without affecting the arterial pressure
  increase in the basic venous tone: more than 20%

## COC(=O)NN=c1c(=O)c2ccccc2c1=O [Example 22, 2-methoxycarbonyl hydrazonoindan-1,3-dione]
Saphena veins of rabbits
  increase in contractions of the saphena veins produced by KCl: more than 50%
  EC50: ~300 nM
